Experiments:
[1] = tested on: MV4-11 tumors; assay: In vivo target engagement (western blot of tumor lysates); design: species or system mice; details: 75 and 125 mg/kg orally for 5 days, 4 h post final dose
Procedure: Western blotting. Western blotting was performed as described previously. Briefly, cells were lysed after incubation with different concentrations of compounds or control (0.1% DMSO) at the indicated times, samples were denatured at 95 °C for 5 min, and proteins having different molecular weights within each sample were separated by electrophoresis (Bio-Rad, Hercules, CA, USA) on polyacrylamide gels (4–20%, Bio-Rad). Resolved proteins were electrophoretically transferred onto a PVDF membrane and blocked by incubating with 10% w/v non-fat powdered milk dissolved in 1 × Tris-buffered saline-tween 20 (TBST) for 1 h at room temperature prior to incubating overnight with primary antibodies at 4 °C with slight shaking. Chemiluminescence was detected with a ChemiDoc^TM gel imaging system after the membranes have been exposed to ECL substrates (GE Healthcare, PA, USA), and the Image Lab software (Bio-Rad) was used for image capture. […] Bands were quantified using ImageJ software (US National Institutes of Health, Bethesda, MD, USA). […]

[2] = target: T1, TNIK (Homo sapiens, UniProt Q9UKE5); assay: Ki determination for kinases with greater than 90% inhibition (Reaction Biology); format: biochemical; details: calculated from IC50 using the Cheng-Prusoff equation
T1 construct: purchased Reaction Biology Corporation (Kinase HotSpot)
Procedure: (§1) Kinase assay. The ADP Glo^TM kinase assay (Promega, Madison, WI, USA) was used to assess the inhibition by CDDD11-8 of CDKs 1, 2, 4, 6, 7, and 9, as well as the mutant isoforms of FLT3. The assays were performed in accord with the manufacturer’s protocol (Promega) as described previously. Briefly, serial three-fold dilutions of CDDD11-8 were prepared in 100% DMSO from a 2 mM stock solution, followed by 1:40 dilution into Milli-Q water. Subsequently, 1 µL of each sample was incubated with 4 µL of kinase mixture containing a particular CDK enzyme and its substrate, standard kinase buffer [3 mM MgCl2, 50 mM HEPES-NaOH pH 7.5, 3 mM MnCl2, 3 µM Na-orthovanadate, 1 mM dithiothreitol (DTT)], kinase dilution buffer (containing 0.25 mg/mL PEG20,000, 50 mM HEPES-NaOH pH 7.5, 1 mM DTT), and ATP at 37 °C for 30 to 40 min. The final reaction mixture contained 0.5% DMSO in all samples, and the applied kinase concentrations were 1, 1, 10, 40, 20, and 50 nM for CDK1, 2, 4, 6, 7, and 9, respectively. The reaction was stopped by adding ADP-Glo reagent and the mixture was incubated further in the dark at room temperature for 40 min. As a final step, kinase detection reagent was added to each mixture and incubated at room temperature for 30 to 60 min. Luminescence was read using an EnVision® multilabel plate reader (PerkinElmer, Beaconsfield, UK), and half-maximum inhibitory concentrations (IC50) were calculated using a non-linear regression model with a variable slope, plotting log (inhibitor concentration) vs. response using the following formula: Ar%=Bottom+Top−Bottom/1+Inhibitor Concentration/IC50^HillSlope where the relative activity Ar (%) is the signal relative to the controls, IC50 is the half maximum concentration, Hillslope is the steepness of the dose-response curve, Top and Bottom are plateaus reflecting the maximum and minimum in responses on the Y-axis (GraphPad Prism version 7, San Diego, CA, USA). Ki values were calculated from the IC50 using the Cheng−Prusoff equation [32]. Extensive specificity assessment was carried out by Reaction Biology Corporation (Malvern, PA, USA) with 369 kinases using 1 µM CDDD11-8 concentration in a Kinase Hotspot radiolabel assay (for experimental details, please see (Reaction Biology https://www.reactionbiology.com/). Subsequently, Ki values were determined for kinases with greater than 90% inhibition.

[3] = target: T2, MST1 (Homo sapiens, UniProt Q13043); assay: as above; format: biochemical; details: calculated from IC50 using the Cheng-Prusoff equation
T2 construct: purchased Reaction Biology Corporation (contract assay)
Procedure: as §1

[4] = target: T3, GLK (Homo sapiens, UniProt Q8IVH8); assay: as above; format: biochemical; details: calculated from IC50 using the Cheng-Prusoff equation
T3 construct: purchased Reaction Biology Corporation (contract assay)
Procedure: as §1

[5] = target: T4, MINK (Homo sapiens, UniProt Q8N4C8); assay: as above; format: biochemical; details: calculated from IC50 using the Cheng-Prusoff equation
T4 construct: purchased Reaction Biology Corporation (contract assay)
Procedure: as §1

[6] = target: T5, NUAK1 (Homo sapiens, UniProt O60285); assay: as above; format: biochemical; details: calculated from IC50 using the Cheng-Prusoff equation
T5 construct: purchased Reaction Biology Corporation (contract assay)
Procedure: as §1

[7] = target: T6, TRKC (Homo sapiens, UniProt Q16288); assay: as above; format: biochemical; details: calculated from IC50 using the Cheng-Prusoff equation
T6 construct: purchased Reaction Biology Corporation (contract assay)
Procedure: as §1

[8] = target: T7, TAOK1 (Homo sapiens, UniProt Q7L7X3); assay: Kinase Hotspot radiolabel assay; format: biochemical; details: read-out: % Residual Activity
T7 construct: purchased Reaction Biology Corporation (Kinase HotSpot)
T7 sequence (Q7L7X3 whole entry): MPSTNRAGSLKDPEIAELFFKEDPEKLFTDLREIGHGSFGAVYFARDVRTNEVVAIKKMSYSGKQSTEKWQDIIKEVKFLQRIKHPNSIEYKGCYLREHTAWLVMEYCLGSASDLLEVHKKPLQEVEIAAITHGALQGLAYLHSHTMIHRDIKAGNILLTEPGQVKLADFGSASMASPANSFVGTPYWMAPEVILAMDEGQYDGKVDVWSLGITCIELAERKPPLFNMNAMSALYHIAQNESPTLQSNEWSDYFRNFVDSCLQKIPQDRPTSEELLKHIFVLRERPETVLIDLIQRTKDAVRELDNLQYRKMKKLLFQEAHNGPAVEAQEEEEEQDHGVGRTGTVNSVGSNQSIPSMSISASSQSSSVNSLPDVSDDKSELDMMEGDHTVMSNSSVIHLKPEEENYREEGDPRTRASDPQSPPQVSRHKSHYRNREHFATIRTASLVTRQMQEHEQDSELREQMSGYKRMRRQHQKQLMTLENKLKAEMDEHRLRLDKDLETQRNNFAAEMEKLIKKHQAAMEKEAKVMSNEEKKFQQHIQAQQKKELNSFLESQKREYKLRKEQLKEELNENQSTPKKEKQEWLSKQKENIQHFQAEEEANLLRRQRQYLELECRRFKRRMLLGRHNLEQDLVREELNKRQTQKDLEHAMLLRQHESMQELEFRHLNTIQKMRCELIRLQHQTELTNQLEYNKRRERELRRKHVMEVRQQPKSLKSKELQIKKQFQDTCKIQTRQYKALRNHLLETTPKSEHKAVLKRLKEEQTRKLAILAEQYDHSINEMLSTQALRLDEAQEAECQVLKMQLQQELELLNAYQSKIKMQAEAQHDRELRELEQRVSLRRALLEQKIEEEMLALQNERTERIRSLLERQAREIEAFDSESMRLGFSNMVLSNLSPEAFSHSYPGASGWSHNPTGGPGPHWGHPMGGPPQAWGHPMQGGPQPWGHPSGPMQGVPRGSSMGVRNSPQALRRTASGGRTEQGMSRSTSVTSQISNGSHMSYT

T5 sequence (O60285 whole entry): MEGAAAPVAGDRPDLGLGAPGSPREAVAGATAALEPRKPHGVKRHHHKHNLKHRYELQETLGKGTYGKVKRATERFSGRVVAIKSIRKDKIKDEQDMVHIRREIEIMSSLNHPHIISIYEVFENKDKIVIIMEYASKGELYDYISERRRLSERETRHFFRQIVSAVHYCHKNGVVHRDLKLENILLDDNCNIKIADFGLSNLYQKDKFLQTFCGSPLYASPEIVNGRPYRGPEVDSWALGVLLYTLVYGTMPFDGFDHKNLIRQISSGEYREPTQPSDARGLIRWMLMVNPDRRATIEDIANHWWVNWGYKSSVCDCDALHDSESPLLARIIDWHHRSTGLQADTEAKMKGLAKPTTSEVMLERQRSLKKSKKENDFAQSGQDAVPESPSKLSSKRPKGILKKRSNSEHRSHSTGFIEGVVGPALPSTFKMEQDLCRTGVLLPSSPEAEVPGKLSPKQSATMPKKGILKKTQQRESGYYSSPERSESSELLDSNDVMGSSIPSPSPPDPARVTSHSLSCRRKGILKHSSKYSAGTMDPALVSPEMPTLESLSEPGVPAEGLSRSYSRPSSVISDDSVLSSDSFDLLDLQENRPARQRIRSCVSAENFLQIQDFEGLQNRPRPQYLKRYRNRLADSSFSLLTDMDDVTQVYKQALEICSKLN
T1 sequence (Q9UKE5 whole entry): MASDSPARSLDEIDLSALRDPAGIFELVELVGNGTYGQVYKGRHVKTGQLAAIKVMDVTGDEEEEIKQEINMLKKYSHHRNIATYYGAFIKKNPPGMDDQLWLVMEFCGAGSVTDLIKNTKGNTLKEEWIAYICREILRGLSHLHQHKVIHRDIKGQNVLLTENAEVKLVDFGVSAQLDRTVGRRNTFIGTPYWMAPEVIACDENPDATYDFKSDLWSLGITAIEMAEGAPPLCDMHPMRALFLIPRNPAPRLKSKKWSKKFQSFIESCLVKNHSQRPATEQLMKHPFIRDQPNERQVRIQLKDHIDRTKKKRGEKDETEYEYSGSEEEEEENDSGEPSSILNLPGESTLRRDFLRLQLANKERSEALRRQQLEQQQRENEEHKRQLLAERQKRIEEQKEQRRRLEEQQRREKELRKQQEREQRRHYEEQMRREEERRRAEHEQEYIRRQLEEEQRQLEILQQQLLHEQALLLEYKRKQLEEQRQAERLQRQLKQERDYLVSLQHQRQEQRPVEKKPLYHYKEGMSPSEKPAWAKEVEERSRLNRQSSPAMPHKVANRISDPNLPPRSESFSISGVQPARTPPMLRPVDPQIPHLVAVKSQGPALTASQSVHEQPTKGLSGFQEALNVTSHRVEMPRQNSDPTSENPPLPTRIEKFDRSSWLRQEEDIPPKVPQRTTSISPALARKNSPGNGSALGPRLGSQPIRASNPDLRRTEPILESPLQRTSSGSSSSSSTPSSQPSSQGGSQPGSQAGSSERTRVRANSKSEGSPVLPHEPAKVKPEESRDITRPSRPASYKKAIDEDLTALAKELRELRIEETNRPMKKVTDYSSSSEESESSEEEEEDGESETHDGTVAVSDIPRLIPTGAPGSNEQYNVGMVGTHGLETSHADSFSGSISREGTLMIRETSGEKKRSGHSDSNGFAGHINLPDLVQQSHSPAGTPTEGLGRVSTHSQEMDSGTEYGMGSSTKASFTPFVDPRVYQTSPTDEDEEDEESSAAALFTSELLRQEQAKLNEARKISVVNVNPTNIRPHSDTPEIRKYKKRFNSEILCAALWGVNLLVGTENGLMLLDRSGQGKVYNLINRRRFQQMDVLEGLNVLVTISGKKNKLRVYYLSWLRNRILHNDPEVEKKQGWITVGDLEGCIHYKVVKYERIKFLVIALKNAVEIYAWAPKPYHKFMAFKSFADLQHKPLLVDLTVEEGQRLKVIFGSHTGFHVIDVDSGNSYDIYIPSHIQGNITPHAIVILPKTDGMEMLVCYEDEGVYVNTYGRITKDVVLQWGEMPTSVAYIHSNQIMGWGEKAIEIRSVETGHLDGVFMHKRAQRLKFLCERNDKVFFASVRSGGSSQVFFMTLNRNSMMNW
T2 sequence (Q13043 whole entry): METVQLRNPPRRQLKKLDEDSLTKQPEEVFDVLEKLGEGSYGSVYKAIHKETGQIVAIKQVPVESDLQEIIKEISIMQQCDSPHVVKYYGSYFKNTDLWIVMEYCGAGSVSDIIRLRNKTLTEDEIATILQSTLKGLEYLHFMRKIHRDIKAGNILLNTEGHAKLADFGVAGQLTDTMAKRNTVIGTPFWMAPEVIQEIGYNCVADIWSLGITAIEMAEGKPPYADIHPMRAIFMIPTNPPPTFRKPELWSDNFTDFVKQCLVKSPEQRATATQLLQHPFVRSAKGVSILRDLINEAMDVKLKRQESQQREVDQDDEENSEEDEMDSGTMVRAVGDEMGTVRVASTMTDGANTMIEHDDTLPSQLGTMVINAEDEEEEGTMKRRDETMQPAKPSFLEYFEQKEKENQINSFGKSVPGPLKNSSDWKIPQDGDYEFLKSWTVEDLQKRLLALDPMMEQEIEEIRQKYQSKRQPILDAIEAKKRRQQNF
T4 sequence (Q8N4C8 whole entry): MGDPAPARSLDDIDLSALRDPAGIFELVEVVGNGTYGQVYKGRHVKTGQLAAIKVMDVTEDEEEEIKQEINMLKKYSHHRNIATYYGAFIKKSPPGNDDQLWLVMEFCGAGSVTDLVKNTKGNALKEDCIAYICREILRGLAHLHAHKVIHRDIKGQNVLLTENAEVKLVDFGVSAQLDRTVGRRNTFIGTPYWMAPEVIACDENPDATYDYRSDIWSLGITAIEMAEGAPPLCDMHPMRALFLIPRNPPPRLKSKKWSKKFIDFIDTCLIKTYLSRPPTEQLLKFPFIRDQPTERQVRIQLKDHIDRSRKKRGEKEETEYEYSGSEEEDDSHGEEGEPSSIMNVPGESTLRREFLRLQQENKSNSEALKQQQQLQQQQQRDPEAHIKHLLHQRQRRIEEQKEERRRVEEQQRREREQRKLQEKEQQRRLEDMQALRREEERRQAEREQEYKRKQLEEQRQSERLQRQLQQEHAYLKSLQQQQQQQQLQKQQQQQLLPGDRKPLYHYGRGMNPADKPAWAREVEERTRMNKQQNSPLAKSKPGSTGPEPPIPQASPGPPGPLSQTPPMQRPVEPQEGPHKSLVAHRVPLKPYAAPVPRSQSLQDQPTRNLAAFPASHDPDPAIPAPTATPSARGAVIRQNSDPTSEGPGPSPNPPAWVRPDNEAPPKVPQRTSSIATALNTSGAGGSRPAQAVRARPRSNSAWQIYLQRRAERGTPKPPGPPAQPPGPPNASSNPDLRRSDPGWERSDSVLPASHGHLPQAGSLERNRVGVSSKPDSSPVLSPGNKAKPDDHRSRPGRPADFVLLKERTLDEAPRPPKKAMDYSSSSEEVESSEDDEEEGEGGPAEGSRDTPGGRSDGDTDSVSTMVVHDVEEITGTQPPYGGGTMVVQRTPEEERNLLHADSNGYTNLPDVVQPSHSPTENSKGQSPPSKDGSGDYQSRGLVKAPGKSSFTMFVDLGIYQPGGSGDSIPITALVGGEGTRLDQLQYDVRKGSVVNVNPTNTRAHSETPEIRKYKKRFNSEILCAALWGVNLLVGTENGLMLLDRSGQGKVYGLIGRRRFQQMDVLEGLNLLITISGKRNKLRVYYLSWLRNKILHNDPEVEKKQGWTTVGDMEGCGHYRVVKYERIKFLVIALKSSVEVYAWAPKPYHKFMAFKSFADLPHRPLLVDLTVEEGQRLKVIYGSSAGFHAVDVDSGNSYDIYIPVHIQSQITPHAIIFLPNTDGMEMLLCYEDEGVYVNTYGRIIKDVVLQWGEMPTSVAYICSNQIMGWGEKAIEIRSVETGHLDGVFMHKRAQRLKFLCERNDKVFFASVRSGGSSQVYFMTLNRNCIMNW

SMILES: Cc1cnc(N[C@H]2CC[C@H](N)CC2)nc1-c1cnc2ccc(-c3ccccc3)cn12 [CDDD11-8]
- level of MCL1 in tumors [1]: greatly reduced
- phosphorylation of FLT3 at Tyr591 and STAT5 at Tyr 694 in tumors [1]: reduced
- phosphorylation of RNAPII at Ser2 and Ser5 in tumors [1]: potently inhibited
- Ki [2]: 3 nM
- Ki [3]: 9 nM
- Ki [4]: 28 nM
- Ki [5]: 14 nM
- Ki [6]: 12 nM
- Ki [7]: 10 nM
- remaining activity at 1 µM [8]: 45.5%
